According to patent publication US6875578B2, “System for cell-based screening” (priority 1997, dated 2005):

Legend:
[1] = tested on: mitochondrial potential in hepatocytes; assay: JC-1 mitochondrial potential measurement, hepatocytes; assay type: cell-based, rat; conditions: various concentrations, nearly complete within seconds to minutes
From the text: (§1) We have utilized a positively charged cyanine dye, JC-1 (Molecular Probes, Eugene, Oreg.), which diffuses into the cell and readily partitions into the mitochondrial membrane, for measurement of mitochondrial potential. The photophysics of JC-1 are such that when the probe partitions into the mitochondrial membrane and it experiences an electrical potential >140 mV, the probe aggregates and its spectral response is shifted to the red. At membrane potential values <140 mV, JC-1 is primarily monomeric and its spectral response is shifted toward the blue. Therefore, the ratio of two emission wavelengths (645 nm and 530 nm) of JC-1 partitioned into mitochondria provides a sensitive and continuous measure of mitochondrial membrane potential.
(§2) • 1. […] (2 times, 150 μl/well), the toxins were added if required, and the entire plate was scanned in a plate reader. The JC-1 monomer was measured optimally with a 485 nm excitation/530 nm emission wavelength filter set, and the aggregates were best measured with a 590 nm excitation/645 nm emission wavelength set. […]
(§3) The mitochondrial potential within several types of living cells, and the effects of toxins on the potential were measured using the fluorescence ratio Em 645 (590)/Em 530 (485) (excitation wavelengths in parentheses). For example, we measured the effect of 10 μM valinomycin on the mitochondrial potential within LLCPK cells (pig epithelia). […]

[2] = tested on: mitochondrial potential within LLCPK cells; assay: JC-1 mitochondrial potential measurement, LLCPK cells; assay type: cell-based, pig; conditions: 10 μM valinomycin, within seconds of treatment
From the text: as §1, §2, §3

Compound: CC(C)[C@@H]1NC(=O)[C@H](C)OC(=O)[C@@H](C(C)C)NC(=O)[C@@H](C(C)C)OC(=O)[C@H](C(C)C)NC(=O)[C@H](C)OC(=O)[C@@H](C(C)C)NC(=O)[C@@H](C(C)C)OC(=O)[C@H](C(C)C)NC(=O)[C@H](C)OC(=O)[C@@H](C(C)C)NC(=O)[C@@H](C(C)C)OC1=O [Valinomycin]
- changes in mitochondrial potential [1]: sensitive to valinomycin
- reduction in mitochondrial potential (fluorescence ratio Em 645/Em 530 of JC-1) [2]: approximately 50%
